Among the data in patent US10611778B2, “Fused bicyclic inhibitors of menin-MLL interaction” (Janssen Pharmaceutica NV, priority 2016, dated 2020) are IC50 values, retold here.

Molecules are shown by their SMILES. Where only a bound is given, the exact number is not on record here.

One experiment has as its target T1, Menin/MLL (terbium chelate-labeled menin, FITC-MBM1 peptide) (Homo sapiens, UniProt O00255, T541A).
T1 construct: Menin (a.a. 1-610-6×his tag) was labeled with terbium cryptate as follows
T1 sequence (O00255 with tags, fused parts or gaps T541A): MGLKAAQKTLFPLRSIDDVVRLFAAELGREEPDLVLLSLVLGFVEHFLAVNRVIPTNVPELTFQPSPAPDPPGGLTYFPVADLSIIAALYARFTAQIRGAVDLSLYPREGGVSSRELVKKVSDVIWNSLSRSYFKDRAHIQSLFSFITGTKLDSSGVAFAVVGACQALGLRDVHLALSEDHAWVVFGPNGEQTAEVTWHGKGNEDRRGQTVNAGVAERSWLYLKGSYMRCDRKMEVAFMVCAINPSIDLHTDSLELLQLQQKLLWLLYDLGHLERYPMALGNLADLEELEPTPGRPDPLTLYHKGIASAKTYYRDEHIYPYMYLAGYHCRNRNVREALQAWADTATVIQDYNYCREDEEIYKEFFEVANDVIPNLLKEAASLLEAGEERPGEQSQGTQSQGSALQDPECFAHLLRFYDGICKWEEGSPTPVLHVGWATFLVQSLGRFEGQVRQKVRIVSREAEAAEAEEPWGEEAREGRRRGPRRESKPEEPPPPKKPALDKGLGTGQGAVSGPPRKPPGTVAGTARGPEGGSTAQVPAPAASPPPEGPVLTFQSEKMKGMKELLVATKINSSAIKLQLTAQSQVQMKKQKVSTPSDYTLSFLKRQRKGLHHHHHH
In words: Menin/MLL homogenous time-resolved fluorescence (HTRF) assay. It counts as binding. Conditions: averaged values over all measurements; read-out: Menin HTRF assay (IC50). As to the method:
3) Menin/MLL Homogenous Time-Resolved Fluorescence (HTRF) Assay
To an untreated, white 384-well microtiter plate was added 40 nL 200× test compound in DMSO and 4 μL 2× terbium chelate-labeled menin (vide infra for preparation) in assay buffer (40 mM Tris-HCl, pH 7.5, 50 mM NaCl, 1 mM DTT and 0.05% Pluronic F-127). After incubation of test compound and terbium chelate-labeled menin for 5 min at ambient temperature, 4 μL 2×FITC-MBM1 peptide (FITC-β-alanine-SARWRFPARPGT-NH2) in assay buffer was added, the microtiter plate centrifuged at 1000 rpm for 1 min and the assay mixtures incubated for 15 min at ambient temperature. The relative amount of menin⋅FITC-MBM1 complex present in an assay mixture is determined by measuring the homogenous time-resolved fluorescence (HTRF) of the terbium/FITC donor/acceptor fluorophore pair using a BMG Pherastar plate reader (ex. 337 nm/terbium em. 490 nm/FITC em. 520 nm) at ambient temperature. The degree of fluorescence resonance energy transfer (the HTRF value) is expressed as the ratio of the fluorescence emission intensities of the FITC and terbium fluorophores (F^em 520 nm/F^em 490 nm). The final concentrations of reagents in the binding assay are 100 pM terbium chelate-labeled menin, 75 nM FITC-MBM1 peptide and 0.5% DMSO in assay buffer. Dose-response titrations of test compounds are conducted using an 11 point, three-fold serial dilution scheme, starting at 31 μM.
Compound potencies were determined by first calculating % inhibition at each compound concentration according to equation 1: % inhibition=((HC−LC)−(HTRF^compound−LC))/(HC−LC))*100 (Eqn 1)
Where LC and HC are the HTRF values of the assay in the presence or absence of a saturating concentration of a compound that competes with FITC-MBM1 for binding to menin, and HTRF^compound is the measured HTRF value in the presence of the test compound. HC and LC HTRF values represent an average of at least 16 replicates per plate.
Where Bottom and Top are the lower and upper asymptotes of the dose-response curve, respectively, IC50 is the concentration of compound that yields 50% inhibition of signal and h is the Hill coefficient.
Preparation of Terbium cryptate labeling of Menin: Menin (a.a. 1-610-6×his tag) was labeled with terbium cryptate as follows. 2 mg of Menin was buffer exchanged into 1× phosphate buffered saline. 16 uM Menin was incubated with 4-fold molar excess NHS-terbium cryptate (Cisbio Bioassays, Bedford, Mass.) for 2 hours at room temperature. The labeled protein was purified away from free label by running the reaction over a Superdex 200 Increase 10/300 GL column at 0.75 ml/min. Peak fractions were collected, aliquoted and frozen at −80° C.
On to `Cn1cc(CN2C(=O)C[C@H]3CCN(c4ncnc5sc(CC(F)(F)F)cc45)C[C@H]32)cn1` (single isomer, unassigned) [Compound 35A], for which the IC50 was 8330 nM.
In the case of `Cn1cc(CN2C(=O)C[C@@H]3CCN(c4ncnc5sc(CC(F)(F)F)cc45)C[C@@H]32)cn1` (single isomer, unassigned) [Compound 35B], the IC50 is more than 25000 nM.
On the same count and under the same terms, the result for `FC(F)(F)Cc1cc2c(N3C[C@H]4CCN(CCc5ccccc5)C[C@H]4C3)ncnc2s1` (single isomer, unassigned) [Compound 48] reads 446 nM.
On the same count and under the same terms, the result for `FC(F)(F)Cc1cc2c(N3C[C@H]4CCN(Cc5ccncn5)C[C@H]4C3)ncnc2s1` (single isomer, unassigned) [Compound 50] reads 281 nM.
Same read-out and setting: the result for `FC(F)(F)Cc1cc2c(N3C[C@H]4CCN(Cc5cnccn5)C[C@H]4C3)ncnc2s1` (single isomer, unassigned) [Compound 53] reads 252 nM; that for `O=c1cc(CN2CC[C@@H]3CN(c4ncnc5sc(CC(F)(F)F)cc45)C[C@@H]3C2)cc[nH]1` (single isomer, unassigned) [Compound 66], 492 nM.
Turning to `Cn1cc(CN2CC[C@@H]3CN(c4ncnc5sc(CC(F)(F)F)cc45)C[C@@H]3C2)cn1` (single isomer, unassigned) [Compound 71A], the IC50 amounted to 985 nM.
On the same count and under the same terms, the result for `FC(F)(F)Cc1cc2c(N3C[C@H]4CN(Cc5cccnc5)CC[C@H]4C3)ncnc2s1` (single isomer, unassigned) [Compound 72] reads 991 nM.
The same measure, in the same setting: as for `FC(F)(F)Cc1cc2c(N3C[C@H]4CCN(CC(F)(F)F)C[C@H]4C3)ncnc2s1` (single isomer, unassigned) [Compound 73], the figure is 2460 nM.
The same measure, in the same setting: as for `FC(F)CN1CC[C@@H]2CN(c3ncnc4sc(CC(F)(F)F)cc34)C[C@@H]2C1` (single isomer, unassigned) [Compound 74], the figure is 2220 nM; as for `CC(C)[C@H](c1cnn(C)c1)N1CC[C@@H]2CN(c3ncnc4sc(CC(F)(F)F)cc34)C[C@@H]2C1` (single isomer, unassigned) [Compound 77A], 201 nM; as for `CC(C)[C@@H](c1cnn(C)c1)N1CC[C@@H]2CN(c3ncnc4sc(CC(F)(F)F)cc34)C[C@@H]2C1` (single isomer, unassigned) [Compound 77B], 1620 nM.
Consider `CC(C)[C@H](c1cnn(C)c1)N1CC[C@H]2CN(c3ncnc4sc(CC(F)(F)F)cc34)C[C@H]2C1` (single isomer, unassigned) [Compound 78A], for which the IC50 turned out to be 520 nM.
As to `CC(C)[C@@H](c1cnn(C)c1)N1CC[C@H]2CN(c3ncnc4sc(CC(F)(F)F)cc34)C[C@H]2C1` (single isomer, unassigned) [Compound 78B], the IC50 worked out at 1320 nM.
Still for that read-out and setting: the result for `C[C@H](c1cnn(C)c1)N1CC[C@@H]2CN(c3ncnc4sc(CC(F)(F)F)cc34)C[C@@H]2C1` (single isomer, unassigned) [Compound 79A] reads 955 nM.
For the compound `C[C@@H](c1cnn(C)c1)N1CC[C@@H]2CN(c3ncnc4sc(CC(F)(F)F)cc34)C[C@@H]2C1` (single isomer, unassigned) [Compound 79B], the IC50 came to 964 nM.
As for `Cn1cc(CN2CC[C@@H]3CN(c4ncnc5sc(CC(F)(F)F)cc45)C[C@@H]3C2)cn1` (single isomer, unassigned) [Compound 87], the IC50 was determined as 20 nM.
For `COc1ncc(CN2CC[C@@H]3CN(c4ncnc5sc(CC(F)(F)F)cc45)C[C@@H]3C2)cn1` (single isomer, unassigned) [Compound 88], the IC50 was found to be 267 nM.
Same read-out and setting: as for `Cc1ncc(CN2CC[C@@H]3CN(c4ncnc5sc(CC(F)(F)F)cc45)C[C@@H]3C2)cn1` (single isomer, unassigned) [Compound 90], the figure is 317 nM; as for `FC(F)(F)Cc1cc2c(N3C[C@H]4CCN(CC5(F)CCOCC5)C[C@H]4C3)ncnc2s1` (single isomer, unassigned) [Compound 98], 504 nM.
Take `FC(F)(F)Cc1cc2c(N3C[C@H]4CCN(Cc5cncnc5)C[C@H]4C3)ncnc2s1` (single isomer, unassigned) [Compound 104]: the IC50 amounted to 375 nM.
As to `CC(C)(C)OC(=O)N1CCC(O)(CN2CC[C@@H]3CN(c4ncnc5sc(CC(F)(F)F)cc45)C[C@@H]3C2)CC1` (single isomer, unassigned) [Compound 109], the IC50 amounted to 714 nM.
Turning to `CC(C)CN1CCC2CN(c3ncnc4sc(CC(F)(F)F)cc34)CCC21` (stereo not shown) [Compound 25], the IC50 is 546 nM.
With `Cn1cc(CN2CC[C@@H]3CN(c4ncnc5sc(CC(F)(F)F)cc45)C[C@@H]32)cn1` [Compound 27C], the IC50 came out at 4530 nM.
Consider `Cn1cc(CN2CC[C@H]3CN(c4ncnc5sc(CC(F)(F)F)cc45)C[C@H]32)cn1` [Compound 27D], for which the IC50 is approximately 6910 nM.
Same read-out and setting: as for `O=C([C@@H]1CCCN1)N1CC[C@@H]2CN(c3ncnc4sc(CC(F)(F)F)cc34)C[C@@H]2C1` [Compound 80], the figure is 933 nM; as for `O=C([C@@H]1CCCN1)N1CC[C@H]2CN(c3ncnc4sc(CC(F)(F)F)cc34)C[C@H]2C1` [Compound 83], 985 nM.

The experiment is the same for the next values; noted with them: individual measurements (not averaged); read-out: (3) Menin HTRF assay (IC50 (nM)).
As to `OCCn1cc(CN2CCC3CN(c4ncnc5sc(CC(F)(F)F)cc45)CCC32)cn1` (stereo not shown) [Compound 24], the IC50 stood at 244 nM.
